Laboratory results reported in ChEMBL document CHEMBL5335791, “Antiparasitic activity of ivermectin: Four decades of research into a "wonder drug"” (Eur J Med Chem, 2023).
pEC50, pIC50: −log10 of the molar value.

What was measured:
[1] = (§1) Cytotoxicity against BALB/c mouse macrophage assessed as cell viability measured after 48 hrs by MTT assay; format: toxicity, cell-based; settings: BALB/c, mouse macrophages
[2] = test system: Leishmania infantum; assay: Antileishmanial activity against promastigote form of Leishmania infantum infected in BALB/c mouse assessed as reduction in parasite growth at 2.5 mg/kg, po administered once for every two days for 10 days; format: functional, organism-based
[3] = Selectivity index, ratio of CC50 for cytotoxicity against BALB/c mouse macrophages to IC50 for antileishmanial activity against promastigote form of Leishmania infantum infected in BALB/c mouse; format: toxicity
[4] = test system: Macrophage; assay: as §1; format: toxicity, cell-based; settings: macrophage, 48 h
[5] = test system: Trypanosoma cruzi; assay: Antitrypanosomal activity against Trypanosoma cruzi Y strain amastigotes; format: functional, organism-based
[6] = test system: Trypanosoma cruzi; assay: Antitrypanosomal activity against Trypanosoma cruzi Y strain intracellular epimastigotes assessed as viability of intracellular epimastigote measured after 5 days; format: functional, organism-based
[7] = test system: Trypanosoma cruzi; assay: Antitrypanosomal activity against Trypanosoma cruzi Y strain trypomastigotes; format: functional, organism-based
[8] = Acute toxicity in Beagle dog assessed as lethal dose; parameters: species or system Canis lupus familiaris; settings: in vivo
[9] = Toxicity in mouse assessed as lethal dose; settings: in vivo
[10] = test system: Trypanosoma evansi; assay: Antitrypanosomal activity against Trypanosoma evansi; format: functional, organism-based

Molecule | CC50 at 48 h [1] | pIC50 ([2]; Leishmania infantum) | selectivity ratio ([3]; BALB/c, mouse macrophages, read-out: Ratio CC50/IC50) | CC50 [4] | pEC50 [5] | pEC50 [6] | pEC50 [7] | LD50 [8] | LD50 [9] | pIC50 [2] | pIC50 [10] | Ratio CC50/IC50 [3]
C[C@@H]1[C@H](O)[C@@H](C)/C=C/C=C/C=C/C=C/C=C/C=C/C=C/[C@H](O[C@@H]2O[C@H](C)[C@@H](O)[C@H](N)[C@@H]2O)C[C@@H]2O[C@](O)(C[C@@H](O)C[C@@H](O)[C@H](O)CC[C@@H](O)C[C@@H](O)CC(=O)O[C@H]1C)C[C@H](O)[C@H]2C(=O)O [AMPHOTERICIN B] | 1.06 µM | 6.92 | ~9 | – | – | – | – | – | – | – | – | –
IVERMECTIN | – | – | – | 428 µM | 6.52 | 5.28 | 4.90 | 80 mg/kg | 0.2 mg/kg | 5.44 | 4.86 | 117
